Paper PMC11678778, “Anti-Inflammatory Properties of Novel 1,2-Benzothiazine Derivatives and Their Interaction with Phospholipid Model Membranes” (Membranes, 2024)

Tests used:
[1] = biological target: T1, COX-1 (Ovis aries, UniProt P05979); experiment: Cyclooxygenase inhibition assay (colorimetric, peroxidase activity, TMPD oxidation); assay type: biochemical; conditions: incubation 2 min; mean ± SD
T1 construct: purchased
T1 sequence (P05979 25-600): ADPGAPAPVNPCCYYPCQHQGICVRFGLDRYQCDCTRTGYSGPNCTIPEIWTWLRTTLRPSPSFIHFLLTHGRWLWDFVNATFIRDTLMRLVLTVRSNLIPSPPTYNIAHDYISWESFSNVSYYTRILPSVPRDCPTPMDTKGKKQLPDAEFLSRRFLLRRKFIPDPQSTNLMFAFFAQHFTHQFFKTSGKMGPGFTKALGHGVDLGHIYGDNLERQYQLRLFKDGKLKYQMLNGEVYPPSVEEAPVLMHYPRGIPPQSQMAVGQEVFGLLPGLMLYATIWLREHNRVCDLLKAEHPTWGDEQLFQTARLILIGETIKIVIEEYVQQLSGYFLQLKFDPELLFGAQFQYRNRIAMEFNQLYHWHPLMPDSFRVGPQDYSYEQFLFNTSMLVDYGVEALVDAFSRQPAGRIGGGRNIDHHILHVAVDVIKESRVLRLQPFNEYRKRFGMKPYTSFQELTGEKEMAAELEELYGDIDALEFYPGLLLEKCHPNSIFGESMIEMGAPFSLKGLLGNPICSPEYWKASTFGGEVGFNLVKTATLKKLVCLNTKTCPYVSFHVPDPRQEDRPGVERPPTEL
Method: (§1) To conduct the cyclooxygenase inhibition assay, we utilized a kit from the manufacturer that contained 150 μL of assay buffer, 10 μL of heme, and 10 μL of either COX-1 or COX-2 enzyme. Each sample was prepared in triplicate, with the addition of 10–500 μM of the test compounds and […] of solvents such as methanol, ethanol, and dimethyl sulfoxide (DMSO). We then added 20 μL of N,N,N cent,N cent-tetramethyl-p-phenylenediamine (TMPD) to each well. Arachidonic acid was introduced to initiate the reaction, which was allowed to proceed for 2 min. Following the incubation period, the extent of TMPD oxidation was measured using the multiscan Go microplate reader at a wavelength of 590 nm (Thermo Fisher Scientific, Waltham, MA, USA).
Cyclooxygenase (COX) peroxidase activity was evaluated using a colorimetric assay. […] The incubation period was maintained at 2 min, following the manufacturer’s guidelines. […] We determined the concentrations of all compounds required for 50% inhibition of COX-1 and COX-2. IC50 values were then calculated, and the ratio of IC50 values for both cyclooxygenase isoforms allowed us to assess the selectivity of the tested structures for COX-1 and COX-2.

[2] = biological target: T2, COX-2 (Homo sapiens, UniProt P35354); experiment: as above; assay type: biochemical; conditions: for IC50: incubation 2 min, mean ± SD; for Selectivity Ratio: (COX-2/COX-1): ratio of IC50 values
T2 construct: purchased
T2 sequence (P35354 18-604): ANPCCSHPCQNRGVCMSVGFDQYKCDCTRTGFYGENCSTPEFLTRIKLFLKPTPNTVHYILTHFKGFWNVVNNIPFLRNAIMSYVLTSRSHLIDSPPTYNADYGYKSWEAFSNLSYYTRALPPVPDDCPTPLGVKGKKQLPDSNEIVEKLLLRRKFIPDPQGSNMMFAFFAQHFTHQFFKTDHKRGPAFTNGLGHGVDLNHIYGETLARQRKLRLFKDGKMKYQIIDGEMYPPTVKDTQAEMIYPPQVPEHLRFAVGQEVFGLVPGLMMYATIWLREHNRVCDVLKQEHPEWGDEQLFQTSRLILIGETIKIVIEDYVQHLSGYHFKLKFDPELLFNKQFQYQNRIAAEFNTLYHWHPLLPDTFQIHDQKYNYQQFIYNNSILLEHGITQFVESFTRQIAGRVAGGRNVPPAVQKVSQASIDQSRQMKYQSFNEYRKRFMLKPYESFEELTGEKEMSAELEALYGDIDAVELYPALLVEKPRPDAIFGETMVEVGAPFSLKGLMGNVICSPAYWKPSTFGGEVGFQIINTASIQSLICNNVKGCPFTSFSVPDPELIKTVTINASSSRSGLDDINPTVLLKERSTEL
Method: as §1
Cyclooxygenase (COX) peroxidase activity was evaluated using a colorimetric assay. […] The incubation period was maintained at 2 min, following the manufacturer’s guidelines. […] IC50 values were then calculated, and the ratio of IC50 values for both cyclooxygenase isoforms allowed us to assess the selectivity of the tested structures for COX-1 and COX-2.

[3] = tested on: NHDF (normal human dermal fibroblast) cells; experiment: MTT cytotoxicity assay; assay type: cell-based; conditions: NHDF cell cultures, 24 h incubation, mean ± SD
Method: NHDF (normal human dermal fibroblast) cells, sourced from the American Type Culture Collection (ATCC), were maintained in DMEM without phenol red, enhanced with 10% fetal bovine serum (FBS), 2 mM L-glutamine, and 25 μg/mL gentamicin. The cells were incubated under conditions of 5% CO2, at a temperature of 37 °C, and 95% humidity. We monitored the cells bi-weekly, utilizing or subculturing them once they reached over 70% confluence. For all experimental setups, cells were plated at a density of 10,000 cells per well and allowed to recover in a CO2 incubator for 24 h.
The compounds under investigation were dissolved in DMSO to achieve a final concentration of 10 mM and then stored at −20 °C. Lipopolysaccharide (LPS) from Escherichia coli (Sigma-Aldrich, Saint Louis, MO, USA; catalog no. L2630) was dissolved in distilled water to a concentration of […]. The stock solution of LPS was stored at −20 °C for up to 6 months. Final concentrations of LPS used in this study were 50 µg/mL. Prior to use, the solutions were thawed at room temperature. For each compound, 8 different concentrations in the range of 500–10 μM were prepared in the culture medium.
The cytotoxicity of the test compound was assessed using the MTT assay. After cell seeding and overnight incubation, the supernatant was removed, and the compounds were added at concentrations ranging from 500 to 10 µM. Control cells were treated with complete medium only, while cells treated with medium containing DMSO at the highest compound concentration were included as the solvent control. After the incubation period, the supernatant was removed, and 50 µL of a 1.0 mg/mL MTT solution was added to each well and incubated for 2 h at 37 °C. The medium was then removed, and 100 µL of DMSO was added to each well. Finally, absorbance was measured at 570 nm using a Multiskan GO spectrophotometer.
Cell viability was calculated according to Equation (1): (Ai − Am)/(Ac − Am) × 100(Ai − Am)/(Ac − Am) × 100(1) where Ai is the absorbance of the tested concentration, Am is the absorbance of the medium, and Ac is the absorbance of the control. Based on the cytotoxicity test results, the IC50 was calculated using a 4-point lognormal distribution with a Hill coefficient. Experiments were performed in triplicate.

[4] = ABTS radical scavenging assay; assay type: physicochemical; conditions: 30 min incubation; mean ± SD, n = 3
Method: The activity of ABTS (2,2′-azino-bis(3-ethylbenzothiazoline-6-sulphonic acid)) was assessed to evaluate the radical scavenging potential of the synthesized compounds. The ABTS reagent was generated by combining equal volumes of a 7 mM aqueous solution of ABTS and a 2.45 mM potassium persulfate solution. This mixture was then incubated in the dark at room temperature for 16 h. Following incubation, the solution was diluted with ethanol until the absorbance reached approximately 0.7 ± 0.05 at a wavelength of 734 nm. The stock solutions of the synthesized compounds in DMSO were serially diluted to obtain concentrations ranging from 500 μM to 10 μM in ethanol. The ABTS reagent was then treated with various concentrations of each compound and incubated in the dark at room temperature. After 30 min of incubation, the absorbance was measured at 734 nm, using ethanol as the blank control. Ascorbic acid served as the standard for comparison, and the IC50 values for the synthesized compounds were calculated using the following Equation (3):(3) %ABTS scavenging activity=Abscontrol−Abs sample/Abs (control)×100

[5] = DPPH radical scavenging assay; assay type: physicochemical; conditions: 30 min incubation, 37 °C; mean ± SD, n = 3
Method: The DPPH assay was conducted to assess the radical scavenging capabilities of the synthesized compounds. Stock solutions of the compounds were formulated in DMSO and subsequently diluted serially to achieve test concentrations ranging from 500 to 10 μM in ethanol. Each sample’s ethanolic DPPH solution was treated with the respective test concentrations and incubated at 37 °C. After a 30 min incubation period, the absorbance was measured at 517 nm, using ethanol as the blank control. Ascorbic acid served as the reference standard, and the IC50 values for the synthesized compounds were determined using the following Equation (2):(2) %DPPH scavenging activity=Abscontrol−Abs sample/Abs (control)×100

[6] = tested on: NHDF cells exposed to LPS; experiment: Inflammation model, MTT assay after LPS; assay type: cell-based, human; conditions: LPS 50 µg/mL 24 h, then compound 10, 50, 100 µM 24 h
Method: Cells seeded in 96-well plates were treated with 50 ug/mL LPS for 24 h for the MTT assay or 1 h for the DCF-DA assay. […] After this time, MTT and DCF-DA assays were performed according to the procedure described in Wiatrak et al.

[7] = tested on: IL-6; experiment: Gene expression by real-time RT-PCR; assay type: cell-based, human; conditions: inflamed NHDF cells, 10 µM, 24 h
Method: (§2) The NHDF cells were treated according to the previously outlined procedure. The control and LPS groups were incubated separately in culture dishes containing DMEM, while the test compounds groups were placed in dishes with 10 µM BS23 and BS28, respectively. After a 24 h incubation at 37 °C in a 5% CO2 atmosphere, the NHDF cells were scraped from the bottom of the microplate using a rubber, and then they were centrifuged at 9000× g for 5 min. The pellet was washed with ice-cold PBS twice. RNA was isolated using a Total RNA Mini Plus kit (A&A Biotechnology, Gdańsk, Poland) followed by DNase I (Thermo Fisher Scientific, Waltham, MA, USA) treatment according to the producer’s instructions. cDNA synthesis was performed using a Fast Gene Scriptase II cDNA (Nippon Genetics Europe, Duren, Germany). RT-qPCR analyses were performed using the DyNAmo Flash SYBR Green qPCR Kit (Thermo Fisher Scientific, Waltham, MA, USA) and the CFX Connect Real-Time PCR Detection System (Bio-Rad, Hercules, CA, USA) . Relative gene expression was normalized to the reference gene, β-actin, using the 2^−ΔΔCT method. The primer sequences utilized in this study were as follows: IL-6: F, 5′-[…]-3′; R, 5′-[…]-3′; TNF-α: F, 5′-[…]-3′; R, 5′-[…]-3′; β-actin: F, 5′-[…]-3′; R, 5′-[…]-3′. All experiments were performed at least three times.

[8] = tested on: TNF-α; experiment: Gene expression by real-time RT-PCR; assay type: cell-based, human; conditions: inflamed NHDF cells, 10 µM, 24 h
Method: as §2

IC50 [1] | IC50 [2] | Selectivity Ratio: (COX-2/COX-1) [2] | IC50 [4] | IC50 [5] | Compound | IC50 [3] | cell viability after LPS then compound [6] | expression of IL-6 mRNA compared to the LPS group [7] | expression of TNF-α mRNA compared to the LPS group [8]
122 ± 3.4 µM | 59.2 ± 3.7 µM | 0.49 | 88.3 ± 1.6 µM | > 500 µM | O=C(C1=C(O)c2ccccc2S(=O)(=O)N1CCCN1CCN(c2ncccn2)CC1)c1ccc(Br)cc1 [BS30] | 168 ± 30.4 µM | – | – | –
95.9 ± 5.7 µM | 12.5 ± 1.9 µM | 0.13 | 88.4 ± 1.9 µM | > 500 µM | O=C(C1=C(O)c2ccccc2S(=O)(=O)N1CC(=O)N1CCN(c2ccccc2)CC1)c1ccc(Br)cc1 [BS28, 3-(4-Bromobenzoyl)-2-[2-(4-phenylpiperazin-1-yl)-2-oxoethyl]-4-hydroxy-2H-1,2-benzothiazine 1,1-dioxide] | 180 ± 13.6 µM | – | markedly reduced | markedly reduced
125 ± 6.7 µM | 17.8 ± 2.1 µM | 0.14 | 53.7 ± 1.7 µM | > 500 µM | O=C(C1=C(O)c2ccccc2S(=O)(=O)N1CCCN1CCN(c2ccccn2)CC1)c1ccc(Br)cc1 [BS29] | 233 ± 11.8 µM | – | – | –
– | – | – | 124 ± 2.3 µM | 218.3 ± 1.8 µM | O=C1O[C@H]([C@@H](O)CO)C(O)=C1O [ascorbic acid, reference compound] | – | – | – | –
– | – | – | 89.5 ± 1.5 µM | > 500 µM | Cc1cnc(NC(=O)C2=C(O)c3ccccc3S(=O)(=O)N2C)s1 [meloxicam, reference compound] | 174 ± 20.3 µM | – | – | –

The remaining lines, values behind:

Compound | IC50 [1] | IC50 [2] | Selectivity Ratio: (COX-2/COX-1) [2] | IC50 [4] | IC50 [5] | IC50 [3] | cell viability after LPS then compound [6] | expression of IL-6 mRNA compared to the LPS group [7] | expression of TNF-α mRNA compared to the LPS group [8]
COc1ccc(C(=O)C2=C(O)c3ccccc3S(=O)(=O)N2CCCN2CCN(c3ccccn3)CC2)cc1 [BS23] | 242 ± 4.2 µM | 13.2 ± 2.1 µM | 0.05 | 54.2 ± 2.2 µM | > 500 µM | 228 ± 28.1 µM | around 70 % of the value for untreated (control) cells | markedly reduced | markedly reduced
Cc1ccc(C(=O)C2=C(O)c3ccccc3S(=O)(=O)N2CCCN2CCN(c3ccccn3)CC2)cc1 [BS25] | 131 ± 7.5 µM | 62.6 ± 1.7 µM | 0.48 | 75.3 ± 1.4 µM | > 500 µM | 200 ± 20.9 µM | – | – | –
O=C(C1=C(O)c2ccccc2S(=O)(=O)N1CCCN1CCN(c2ncccn2)CC1)c1ccc(F)cc1 [BS27] | 117 ± 4.3 µM | 25.6 ± 2 µM | 0.22 | 83.3 ± 2.5 µM | > 500 µM | 191 ± 12.5 µM | – | – | –
O=C(C1=C(O)c2ccccc2S(=O)(=O)N1CCCN1CCN(c2ccccn2)CC1)c1ccc(F)cc1 [BS26] | 129 ± 9.1 µM | 18.2 ± 4.3 µM | 0.14 | 83.7 ± 3.2 µM | > 500 µM | 203 ± 22.9 µM | – | – | –
COc1ccc(C(=O)C2=C(O)c3ccccc3S(=O)(=O)N2CCCN2CCN(c3ncccn3)CC2)cc1 [BS24] | 127 ± 3.6 µM | 26.3 ± 3.4 µM | 0.21 | 63.2 ± 2.8 µM | > 500 µM | 163 ± 15.7 µM | – | – | –
